How the values were obtained:
[1] = tested on: AR chromatin association at KLK3 ARE enhancer elements; assay: ChIP of AR at KLK3 enhancer in C4-2 cells; details: compound 10 μM, R1881 1 nM or 10 nM, 2 h, FIG. 3C
Protocol: (3C) C4-2 cells plated in hormone-depleted medium were treated with either vehicle, R1881, or the indicated compound for 2 h. Cells were harvested and subjected to ChIP using AR antibody. Taqman probes targeting ARE enhancer elements associated with the KLK3 gene were used to quantify the immunoprecipitated chromatin.
Chromatin Immunoprecipitation (ChIP). […] The ChIP signals were measured by quantitative real time PCR analysis of the immunoprecipitated products.
As a target site for the ChIP assay, the well-established AR binding enhancer elements located 4 kb upstream of the transcription initiation site of the KLK3 gene was chosen.

AR = target: T1, AR (Homo sapiens, UniProt P10275, T878A); assay: Western blot of AR protein in C4-2 cells; format: cell-based; details: 1 μM to 10 μM, 24 h, relative to GAPDH, FIG. 4A
T1 construct: endogenous in cells; host or cells: C4-2 cells
T1 sequence (P10275 1-920 T878A): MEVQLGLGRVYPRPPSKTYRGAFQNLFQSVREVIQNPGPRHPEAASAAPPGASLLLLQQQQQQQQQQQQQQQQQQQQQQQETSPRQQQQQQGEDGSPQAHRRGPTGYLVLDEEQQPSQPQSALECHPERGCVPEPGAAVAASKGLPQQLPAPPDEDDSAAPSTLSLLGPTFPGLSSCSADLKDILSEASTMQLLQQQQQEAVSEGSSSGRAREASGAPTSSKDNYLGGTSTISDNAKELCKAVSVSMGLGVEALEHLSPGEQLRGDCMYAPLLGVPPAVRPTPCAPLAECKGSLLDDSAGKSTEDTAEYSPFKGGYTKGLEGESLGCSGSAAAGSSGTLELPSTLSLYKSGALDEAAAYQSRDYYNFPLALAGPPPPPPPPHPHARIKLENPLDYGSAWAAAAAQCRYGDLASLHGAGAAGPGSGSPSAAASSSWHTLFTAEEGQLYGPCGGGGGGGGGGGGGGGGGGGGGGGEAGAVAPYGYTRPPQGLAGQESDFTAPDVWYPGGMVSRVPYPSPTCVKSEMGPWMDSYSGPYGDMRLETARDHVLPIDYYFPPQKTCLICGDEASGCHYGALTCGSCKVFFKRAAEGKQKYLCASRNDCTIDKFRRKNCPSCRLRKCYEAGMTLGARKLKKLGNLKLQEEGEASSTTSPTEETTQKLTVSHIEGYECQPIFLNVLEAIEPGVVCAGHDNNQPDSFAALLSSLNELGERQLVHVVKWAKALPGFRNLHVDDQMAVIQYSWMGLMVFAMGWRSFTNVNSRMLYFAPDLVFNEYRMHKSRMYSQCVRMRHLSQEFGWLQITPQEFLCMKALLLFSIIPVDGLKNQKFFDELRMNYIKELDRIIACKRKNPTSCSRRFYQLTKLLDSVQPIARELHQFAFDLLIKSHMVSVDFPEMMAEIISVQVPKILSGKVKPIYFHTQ
Protocol: Cells were then harvested for western blot analysis using antibody to AR (4A), HSP90 (4B), Acetyl-Lysine (4C) or GAPDH (loading control). ImageJ software was used to determine the intensities of the bands relative to the vehicle control for each protein. The values were then divided by the values for GAPDH within the same samples.
Western Blot Analysis. Cells were washed once with phosphate buffered saline (PBS) and then lysed with RIPA buffer (150 mM NaCl, 1% Nonidet P-40, 0.5% sodium deoxycholate, 0.1% SDS, 50 mM Tris of pH 8.0) containing a protease inhibitor cocktail (Pierce, Thermo Fisher Scientific). The cell lysates were then incubated on ice for 40 minutes. Total protein concentrations were estimated using the Bradford Assay (Bio-Rad). Protein samples (10-40 ug) were heated at 95° C. for 5 minutes and resolved by electrophoresis on 8% polyacrylamide-SDS gels and electrophoretically transferred to PVDF membranes (Millipore, Billerica, Mass.). The membranes were then probed overnight at 4° C. with the appropriate primary antibody followed by the appropriate horseradish peroxidase-conjugated secondary antibody.

C4-2 cells = assay: MTT cell viability assay, C4-2 cells; format: cell-based; details: for EC50: C4-2, 72 h, 0.1 μM-10 μM, read-out: EC50, inhibition of C4-2 cell growth; for cell death (viable cells below the number on Day 0): C4-2 cells, 5 μM, MTT Day 3 relative to Day 0, FIG. 6C
Protocol: (6A) C4-2 cells were seeded in 96-well plates and 24 h later, they were treated with the indicated compounds (0.1 μM-10 μM) or with vehicle (DMSO). Cell viability was measured by the MTT assay on Days 0 and 3 of treatment. EC50 values were calculated from nonlinear regression plots using GraphPad Prism5 software. […] Cell viability was measured by the MTT assay on Days 0 and 3 of treatment. […] Cell viability was measured by the MTT assay on Days 0 and 3 of treatment. […] (6D) 22Rv1 cells were infected with AR shRNA lentivirus, or control shRNA. 72 h after infection, cells were plated and viable cells were measured by the MTT assay on the indicated days (6D, bottom). Cells were also harvested for western blot analysis and probed with antibody to AR, which was also reactive with the AR splice variant AR-V7 (6D, top). (6E) 22Rv1 cells were seeded in 96-well plates and 24 h later, they were treated with the indicated compounds (0.1 μM-10 μM) or with vehicle (DMSO). Cell viability was measured by the MTT assay on Days 0 and 3 of treatment. EC50 values were calculated from nonlinear regression plots using GraphPad Prism5 software.
Cell Proliferation Assay. Cells were trypsinized and 6000 cells/well were seeded in 96-well plates coated with poly-D-lysine. The cells were seeded in phenol red-free medium supplemented with 10% FBS, 100 units/ml penicillin, 100 μg/ml streptomycin, 2 mM L-glutamine mixture and sodium pyruvate (1 mM) for C4-2 cells and phenol red-free medium supplemented with 10% FBS, 100 units/ml penicillin, 100 μg/ml streptomycin and 2 mM L-glutamine mixture for 22Rv1 cells. The cells were grown at 37° C. in 5% CO2. Twenty four hours after seeding in the 96-well plates, the cells were treated with indicated compound or DMSO (vehicle). The culture medium was not changed during the time course of the assay. On Day zero and on Day 3, cell viability was determined using the MTT assay. MTT (10 μL, 5 mg/mL) was added to each well and incubated for 2 h at 37° C. The formazan crystal sediments were dissolved in 100 μL of DMSO, and the absorbance at 570 nm was measured using the BioTek Synergy 2 Microplate Reader (BioTek, Winooski, Vt.). […] IC50 values were calculated from nonlinear […] plots using GraphPad Prism5 software.

Structure (SMILES)	chromatin association of AR (ChIP signal) [1]	AR protein level (degradation) (AR)	EC50 (C4-2 cells; MTT, Day 3, FIG. 6A) [nM]	cell death (viable cells below the number on Day 0) (C4-2 cells)	effect on C4-2 cell growth (C4-2 cells; MTT, Day 3, up to 10 μM, FIG. 6A)
CC1(C)C(=O)N(c2ccc(C#N)c(C(F)(F)F)c2)C(=S)N1c1ccc(C(=O)NCCCCCCC(=O)NO)c(F)c1 [Compound 2-75, 4-(3-(4-cyano-3-(trifluoromethyl)phenyl)-5,5-dimethyl-4-oxo-2-thioxoimidazolidin-1-yl)-2-fluoro-N-(7-(hydroxyamino)-7-oxoheptyl)benzamide]	basal ChIP signal	more efficiently induced AR protein degradation	1620	caused cell death	–
CC1(C)C(=O)N(c2ccc(C#N)c(C(F)(F)F)c2)C(=S)N1c1ccc(/C=C/C(=O)NO)c(F)c1 [Compound 1005, (E)-3-(4-(3-(4-cyano-3-(trifluoromethyl)phenyl)-5,5-dimethyl-4-oxo-2-thioxoimidazolidin-1-yl)-2-fluorophenyl)-N-hydroxyacrylamide]	–	more efficiently induced AR protein degradation	3290	caused cell death	–
CNC(=O)c1ccc(N2C(=S)N(c3ccc(C#N)c(C(F)(F)F)c3)C(=O)C2(C)C)cc1F [Enz, Enzalutamide, reference compound]	basal ChIP signal	–	–	–	could not appreciably affect growth even at a concentration of 10 μM
